In patent publication US20250115654A1, “PHARMACEUTICAL COMPOSITION OF GLP-1 RECEPTOR AND GIP RECEPTOR DUAL AGONIST, AND USE THEREOF” (FUJIAN SHENGDI PHARMACEUTICAL CO., LTD., priority 2021, published 2025):
Marks after values point to notes of the source that are not given here. Numbered stars: 1 amine (or outer) side, 2 acyl side, 3 side chain; on linkers, the order of the positions; unused ones are H or OH. Square brackets hold non-standard residues; d marks the D form. Side chains are listed from the residue outwards. Peptide text beside a SMILES is read from it. * marks the point of attachment. C20 diacid = O=C(O)CCCCCCCCCCCCCCCCCCC(=O)*; γGlu = O=C(O)[C@H](CCC(=O)[*:2])N[*:1]; AEEA = NCCOCCOCC(=O)O; Aib = CC(C)(N)C(=O)O

Assays:
[1] = tested on: diet-induced-obesity mice; assay: Body weight of diet-induced-obesity mice, subcutaneous administration once every 3 days; type: in vivo, C57BL/6 mice
[2] = tested on: diet-induced-obesity mice; assay: Viscera/brain ratio for fat mass in different parts of diet-induced obesity mice; type: in vivo, C57BL/6 mice
Description: High-fat food-induced-obesity male C57BL/6 mice (weighing 35-55 g, aged 10-12 weeks, purchased from Shanghai Jiesijie Laboratory Animal Co., Ltd.) were tested. […] According to the experimental design, the body weight of each mouse was measured and recorded on day 0, day 3, day 6, and so on to day 27, the average body weight of each group of mice was calculated, and body weight change curves were plotted by taking the body weight on the first day as the standard. At the end, the fat and other visceral organs of each part of the mice were taken out and weighed, and the viscera/brain ratio for fat in each part of each mouse was calculated. The effect of the drug on the fat was determined by comparing the change in the viscera/brain ratio for fat of different parts of each group of mice.

## CC[C@H](C)[C@H](NC(=O)[C@H](CCCCN)NC(=O)[C@H](CCC(=O)O)NC(=O)[C@H](CCCCNC(=O)COCCOCCNC(=O)COCCOCCNC(=O)CC[C@H](NC(=O)CCCCCCCCCCCCCCCCCCC(=O)O)C(=O)O)NC(=O)[C@H](Cc1ccc(O)cc1)NC(=O)[C@@H](NC(=O)[C@H](CO)NC(=O)[C@H](Cc1ccc(O)cc1)NC(=O)[C@H](CC(=O)O)NC(=O)[C@H](CO)NC(=O)[C@@H](NC(=O)[C@H](Cc1ccccc1)NC(=O)[C@@H](NC(=O)CNC(=O)[C@H](CCC(=O)O)NC(=O)C(C)(C)NC(=O)[C@@H](N)Cc1ccc(O)cc1)[C@@H](C)O)[C@@H](C)O)[C@@H](C)CC)C(=O)N[C@@H](C)C(=O)N[C@@H](C)C(=O)N[C@@H](CCC(N)=O)C(=O)N[C@@H](CCC(=O)O)C(=O)N[C@@H](Cc1ccccc1)C(=O)N[C@H](C(=O)N[C@@H](CC(N)=O)C(=O)N[C@@H](Cc1c[nH]c2ccccc12)C(=O)N[C@@H](CC(C)C)C(=O)N[C@@H](CC(C)C)C(=O)N[C@@H](C)C(=O)NCC(=O)NCC(=O)N1CCC[C@H]1C(=O)N[C@@H](CO)C(=O)N[C@@H](CO)C(=O)NCC(=O)N[C@@H](C)C(=O)N1CCC[C@H]1C(=O)N1CCC[C@H]1C(=O)N1CCC[C@H]1C(=O)N[C@@H](CO)C(N)=O)C(C)C [Compound 18#] (H-Y[Aib]EGTFTSDYSIYK([AEEA-AEEA-γGlu-C20 diacid])EKIAAQEFVNWLLAGGPSSGAPPPS-NH2)
[1]; 3 nmol/kg, day 0 (before administration)
  rate of change in body weight: 0%
[1]; 3 nmol/kg, day 1 after administration
  rate of change in body weight: −5 ± 0.6%
[1]; 3 nmol/kg, day 2 after administration
  rate of change in body weight: −6.3 ± 1 ^ %
[1]; 3 nmol/kg, day 3 after administration
  rate of change in body weight: −5.8 ± 1.9%
[1]; 3 nmol/kg, day 4 after administration
  rate of change in body weight: −9.1 ± 2.1 %
[1]; 3 nmol/kg, day 5 after administration
  rate of change in body weight: −10.3 ± 3.2 %
[1]; 3 nmol/kg, day 6 after administration
  rate of change in body weight: −10 ± 4.4 %
[1]; 3 nmol/kg, day 7 after administration
  rate of change in body weight: −13 ± 5.3 %
[1]; 3 nmol/kg, day 8 after administration
  rate of change in body weight: −13.9 ± 6.1 %
[1]; 3 nmol/kg, day 9 after administration
  rate of change in body weight: −13.9 ± 7.4 %
[1]; 3 nmol/kg, day 10 after administration
  rate of change in body weight: −16.6 ± 7.8 %
[1]; 3 nmol/kg, day 11 after administration
  rate of change in body weight: −16.4 ± 8.2 %
[1]; 3 nmol/kg, day 12 after administration
  rate of change in body weight: −15.7 ± 8.6 %
[1]; 3 nmol/kg, day 13 after administration
  rate of change in body weight: −18.2 ± 8.2 %
[1]; 3 nmol/kg, day 14 after administration
  rate of change in body weight: −17.1 ± 7.2 %
[1]; 3 nmol/kg, day 15 after administration
  rate of change in body weight: −15.7 ± 7.4 %
[1]; 3 nmol/kg, day 16 after administration
  rate of change in body weight: −18.6 ± 7 %
[1]; 3 nmol/kg, day 17 after administration
  rate of change in body weight: −18.3 ± 7***^ %
[1]; 3 nmol/kg, day 18 after administration
  rate of change in body weight: −17.9 ± 7.1 %
[1]; 3 nmol/kg, day 19 after administration
  rate of change in body weight: −20.5 ± 7.5 %
[1]; 3 nmol/kg, day 20 after administration
  rate of change in body weight: −19.8 ± 7.4 %
[1]; 3 nmol/kg, day 21 after administration
  rate of change in body weight: −17.8 ± 7.3 %
[1]; 3 nmol/kg, day 22 after administration
  rate of change in body weight: −19.3 ± 8.2 %
[1]; 3 nmol/kg, day 23 after administration
  rate of change in body weight: −19.1 ± 7.6 %
[1]; 3 nmol/kg, day 24 after administration
  rate of change in body weight: −17.3 ± 7.4 %
[1]; 3 nmol/kg, day 25 after administration
  rate of change in body weight: −19.9 ± 7.6 %
[1]; 3 nmol/kg, day 26 after administration
  rate of change in body weight: −18.8 ± 8 %
[1]; 3 nmol/kg, day 27 after administration
  rate of change in body weight: −16.1 ± 7.6 %
[1]; 3 nmol/kg, day 28 after administration
  rate of change in body weight: −19.2 ± 8***^ %
[1]; 10 nmol/kg dose group, day 27
  body weight reduced: more than 20.0%
[1]; 10 nmol/kg, day 0 (before administration)
  rate of change in body weight: 0%
[1]; 10 nmol/kg, day 1 after administration
  rate of change in body weight: −6.2 ± 1.1%
[1]; 10 nmol/kg, day 2 after administration
  rate of change in body weight: −8.6 ± 0.9 %
[1]; 10 nmol/kg, day 3 after administration
  rate of change in body weight: −9.4 ± 1.6 %
[1]; 10 nmol/kg, day 4 after administration
  rate of change in body weight: −12.7 ± 2.4 %
[1]; 10 nmol/kg, day 5 after administration
  rate of change in body weight: −14.5 ± 3.3 %
[1]; 10 nmol/kg, day 6 after administration
  rate of change in body weight: −15 ± 5.3 %
[1]; 10 nmol/kg, day 7 after administration
  rate of change in body weight: −18.3 ± 6.3 %
[1]; 10 nmol/kg, day 8 after administration
  rate of change in body weight: −20.1 ± 8***^ %
[1]; 10 nmol/kg, day 9 after administration
  rate of change in body weight: −20.3 ± 9.3 %
[1]; 10 nmol/kg, day 10 after administration
  rate of change in body weight: −23.4 ± 9.8 %
[1]; 10 nmol/kg, day 11 after administration
  rate of change in body weight: −23.9 ± 10.7 %
[1]; 10 nmol/kg, day 12 after administration
  rate of change in body weight: −23.5 ± 11.4 %
[1]; 10 nmol/kg, day 13 after administration
  rate of change in body weight: −26.4 ± 11.8 %
[1]; 10 nmol/kg, day 14 after administration
  rate of change in body weight: −25.1 ± 12.1 %
[1]; 10 nmol/kg, day 15 after administration
  rate of change in body weight: −23.4 ± 9***^ %
[1]; 10 nmol/kg, day 16 after administration
  rate of change in body weight: −26.6 ± 9.7 %
[1]; 10 nmol/kg, day 17 after administration
  rate of change in body weight: −25.7 ± 8.7 %
[1]; 10 nmol/kg, day 18 after administration
  rate of change in body weight: −24.6 ± 8.2 %
[1]; 10 nmol/kg, day 19 after administration
  rate of change in body weight: −27.5 ± 7.6 %
[1]; 10 nmol/kg, day 20 after administration
  rate of change in body weight: −27.3 ± 7.2 %
[1]; 10 nmol/kg, day 21 after administration
  rate of change in body weight: −24.8 ± 6.7 %
[1]; 10 nmol/kg, day 22 after administration
  rate of change in body weight: −28.1 ± 7.4 %
[1]; 10 nmol/kg, day 23 after administration
  rate of change in body weight: −27.1 ± 7***^ %
[1]; 10 nmol/kg, day 24 after administration
  rate of change in body weight: −26 ± 7.1 %
[1]; 10 nmol/kg, day 25 after administration
  rate of change in body weight: −28.5 ± 8.8 %
[1]; 10 nmol/kg, day 26 after administration
  rate of change in body weight: −27.8 ± 8.3 %
[1]; 10 nmol/kg, day 27 after administration
  rate of change in body weight: −24.8 ± 8.4 %
[1]; 10 nmol/kg, day 28 after administration
  rate of change in body weight: −28.2 ± 8.3 %
[1]; 100 nmol/kg, day 0 (before administration)
  rate of change in body weight: 0%
[1]; 100 nmol/kg, day 1 after administration
  rate of change in body weight: −6.3 ± 0.5%
[1]; 100 nmol/kg, day 2 after administration
  rate of change in body weight: −10.9 ± 0.8 %
[1]; 100 nmol/kg, day 3 after administration
  rate of change in body weight: −13.2 ± 1 %
[1]; 100 nmol/kg, day 4 after administration
  rate of change in body weight: −15.7 ± 0.9 %
[1]; 100 nmol/kg, day 5 after administration
  rate of change in body weight: −19.2 ± 1.3 %
[1]; 100 nmol/kg, day 6 after administration
  rate of change in body weight: −21.8 ± 2.3 %
[1]; 100 nmol/kg, day 7 after administration
  rate of change in body weight: −24.7 ± 3.3 %
[1]; 100 nmol/kg, day 8 after administration
  rate of change in body weight: −27.6 ± 3.7 %
[1]; 100 nmol/kg, day 9 after administration
  rate of change in body weight: −29.6 ± 4.7 %
[1]; 100 nmol/kg, day 10 after administration
  rate of change in body weight: −31.6 ± 5.3 %
[1]; 100 nmol/kg, day 11 after administration
  rate of change in body weight: −33.7 ± 6.3 %
[1]; 100 nmol/kg, day 12 after administration
  rate of change in body weight: −34.4 ± 7.1 %
[1]; 100 nmol/kg, day 13 after administration
  rate of change in body weight: −35.6 ± 6.2 %
[1]; 100 nmol/kg, day 14 after administration
  rate of change in body weight: −36.7 ± 5.7 %
[1]; 100 nmol/kg, day 15 after administration
  rate of change in body weight: −35.7 ± 5.6 %
[1]; 100 nmol/kg, day 17 after administration
  rate of change in body weight: −38.2 ± 6.2 %
[1]; 100 nmol/kg, day 18 after administration
  rate of change in body weight: −37.8 ± 6.5 %
[1]; 100 nmol/kg, day 19 after administration
  rate of change in body weight: −38.5 ± 6.5 %
[1]; 100 nmol/kg, day 20 after administration
  rate of change in body weight: −39 ± 6.5 %
[1]; 100 nmol/kg, day 21 after administration
  rate of change in body weight: −37.4 ± 6.6 %
[1]; 100 nmol/kg, day 22 after administration
  rate of change in body weight: −38.3 ± 6.2 %
[1]; 100 nmol/kg, day 23 after administration
  rate of change in body weight: −38 ± 5.9 %
[1]; 100 nmol/kg, day 24 after administration
  rate of change in body weight: −36.8 ± 5.8 %
[1]; 100 nmol/kg, day 25 after administration
  rate of change in body weight: −38.6 ± 5.7 %
[1]; 100 nmol/kg, day 26 after administration
  rate of change in body weight: −38.9 ± 6 %
[1]; 100 nmol/kg, day 27 after administration
  rate of change in body weight: −36.8 ± 5.3 %
[1]; 100 nmol/kg, day 28 after administration
  rate of change in body weight: −37.9 ± 5.7 %
[1]; doses of 3, 10 and 100 nmol/kg
  body weight-reducing effect on high-fat food-induced-obesity mice: significant body weight-reducing effect
[2]; 3 nmol/kg
  viscera/brain ratio, Epididymal fat: 254.6 ± 113.4 %
  viscera/brain ratio, Inguinal fat: 281.5 ± 140.1 %
  viscera/brain ratio, Mesenteric fat: 84.8 ± 41.3 %
  viscera/brain ratio, Perirenal fat: 159.2 ± 87.6 %
  viscera/brain ratio, Scapular fat: 48 ± 15.3%
  viscera/brain ratio, Subcutaneous fat: 120 ± 62 %
[2]; 10 nmol/kg
  viscera/brain ratio, Epididymal fat: 211.7 ± 80.7 %
  viscera/brain ratio, Inguinal fat: 194.4 ± 86.2 %
  viscera/brain ratio, Mesenteric fat: 53.3 ± 14.6 %
  viscera/brain ratio, Perirenal fat: 109.4 ± 57.1 %
  viscera/brain ratio, Scapular fat: 42.5 ± 17^ %
  viscera/brain ratio, Subcutaneous fat: 122 ± 73.2 %
[2]; 100 nmol/kg
  viscera/brain ratio, Epididymal fat: 102.9 ± 32.2 %
  viscera/brain ratio, Inguinal fat: 92 ± 34.5 %
  viscera/brain ratio, Mesenteric fat: 27.4 ± 11.1 %
  viscera/brain ratio, Perirenal fat: 46.6 ± 18.2 %
  viscera/brain ratio, Scapular fat: 32.3 ± 7%
  viscera/brain ratio, Subcutaneous fat: 57.1 ± 21.2 %
[2]; all dose test groups
  content of fat of each part (except scapular fat) relative to placebo group: significantly reduced
